“And” between values parts separate entries of the source, which are not always exact repeats. Equal entries are not always repeated.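 The compound was tested at five concentrations on cells cultured in 96-well plates, with a 48-hour exposure period. Here, GI50 denotes the concentration required for 50% inhibition of growth. TGI is the concentration that stops growth completely.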

Test in all cases: growth of human tumour cells (NCI), 48 h
Assay [1] concerns A498 renal.
Assay [2] concerns COLO 205 colon.
Assay [3] has as its system DU-145 prostate.
Assay [4] deals with EKVX NSCLC.
The test system of assay [5] is HL-60(TB) leukemia.
In assay [6] the test system is MDA-MB-231 breast.
The test system of assay [7] is NCI-H226 lung.
Assay [8] deals with OVCAR-8 ovarian.
The test system of assay [9] is SN12C renal.
Assay [10] deals with UO-31 renal.

In the case of `COc1ccc(/C=C\c2cc(OC)c(OC)c(OC)c2)cc1NC(=O)/C=C/c1ccc(OC)c(OC)c1`, the GI50 in assay [1] was 0.184 µM; in assay [2] it was 2.05 µM; in [3], 4.93 µM; in [4], greater than 100 µM; in [5], 2.54 µM; in [6] it was 25.5 µM. Moreover, the GI50 in assay [7] is 4.03 µM; in assay [8], 5.1 µM; in [9] it was 5.43 µM; in assay [10], 6.21 µM. Moreover, the TGI is greater than 100 µM in assay [1]; 10.9 µM in assay [2]; greater than 100 µM in [3]; greater than 100 µM in assay [4]; 8.85 µM in assay [5]; greater than 100 µM in assay [6]. The TGI in assay [7], in assay [8], in [9] and in [10] was greater than 100 µM each time.

As to `O=NNc1ccc(-c2ccccc2)cn1`, the TGI in assay [1] was 32.7 µM; in assay [2], greater than 50.3 µM; in assay [3], 9.78 µM; in [4], greater than 51.2 µM; in assay [5] it was 51.9 µM; in [6], greater than 78.1 µM. In addition, the TGI was greater than 64.6 µM in assay [7], greater than 100 µM in assay [8], greater than 35.1 µM in assay [9] and 58 µM in assay [10].

In the case of `CN(C)S(=O)(=O)c1cccc(C(=O)Nc2nc(-c3ccc(F)c(F)c3)cs2)c1`, the GI50 in assay [1] was 16.9 µM; in assay [2], 35.6 µM; in [3], 25.9 µM; in [4], 4 µM; in assay [5], 6.08 µM; in assay [6], 20.6 µM. The GI50 is 9.32 µM in assay [7], 8.28 µM in assay [8], 25.9 µM in assay [9] and 9.09 µM in assay [10]. Also, the TGI in [1] was greater than 100 µM; in assay [2] it was greater than 100 µM; in assay [3], greater than 100 µM; in [4], greater than 76.2 µM; in assay [5] it was greater than 100 µM; in assay [6], greater than 100 µM. In addition, the TGI was 98.3 µM in assay [7], greater than 100 µM in [8], greater than 100 µM in [9] and greater than 100 µM in [10].

`Nc1nc(N)nc(CCCCc2nc(N)nc(N)n2)n1`: the TGI in assay [1], in assay [2], in [3], in [4], in assay [5] and in [6] was greater than 100 µM in each case. For the same molecule, the TGI in assay [7], in [8], in assay [9] and in assay [10] was greater than 100 µM in each case.

For `NCC(=O)Nc1ccc(Cl)cc1C(=O)c1ccc[nH]1`, the TGI in [1], in assay [2], in assay [3], in assay [4], in [5] and in assay [6] was greater than 100 µM throughout. The TGI in assay [7], in assay [8], in assay [9] and in assay [10] was greater than 100 µM in each case.

With `COC(=O)NC1(NC(=O)OC)NC(=O)c2ccccc2N1`, the TGI in assay [1], in assay [2], in assay [3], in assay [4], in assay [5] and in assay [6] was greater than 100 µM in each case. For the same molecule, the TGI in assay [7], in assay [8], in assay [9] and in [10] was greater than 100 µM each time.

Consider `C[C@H]1C[C@@H](n2c(Nc3ccc(OC(F)(F)F)cc3)nc3cc(CCC(=O)O)ccc32)CC(C)(C)C1`, for which the GI50 in assay [1] was 11.1 µM; in assay [2] it was 18.8 µM; in [3] it was 13.8 µM; in assay [4], 10.5 µM; in assay [5], 10.3 µM; in [6], 16 µM. Besides, the GI50 in [7] is 17.8 µM; in assay [8], 13.2 µM; in [9], 9.95 µM; in assay [10] it was 9.38 µM. Moreover, the TGI was 23.2 µM in [1]; 39.4 µM in assay [2]; 27.2 µM in assay [3]; 32.2 µM in assay [4]; 29.1 µM in assay [5]; 32.9 µM in assay [6]. For the same molecule, the TGI in [7] is 42.4 µM; in assay [8], 35.1 µM; in assay [9] it was 28 µM; in [10], 21.5 µM.

In the case of `CC(=O)CC[N+](C)(C)C`, the TGI in assay [1] is 91.9 µM; in assay [2], 17.5 µM; in assay [3] it was greater than 79 µM; in assay [4], 28.9 µM; in assay [5] it was 14 µM; in assay [6], 38.6 µM. The TGI in [7] amounted to 88.2 µM; in [8], 67.5 µM; in [9], 53.6 µM; in assay [10], 67.8 µM.

As for `COc1ccc(CCN2CCCn3c2nc2ccccc2c3=O)cc1`, the GI50 was 0.0296 µM in [1]; 0.0555 µM in assay [2]; 0.211 µM in assay [3]; 0.97 µM in assay [4]; 0.038 µM in assay [5]; 0.408 µM in [6]. Moreover, the GI50 is 6.43 µM in assay [7], 0.423 µM in [8], 1.1 µM in [9] and 0.876 µM in assay [10]. The TGI in assay [1] was 0.814 µM; in [2] it was 1.13 µM; in [3] it was greater than 64.8 µM; in [4], greater than 100 µM; in [5], 0.982 µM; in assay [6], greater than 100 µM. The TGI in [7], in assay [8], in assay [9] and in assay [10] was greater than 100 µM in each case.

Turning to `COc1ccc2[nH]c3c(C)c4c(c(C)c3c2c1)CN(C)C=C4`, the TGI was 21.3 µM in assay [1]; 10.3 µM in [2]; 33.8 µM in assay [3]; 38.8 µM in [4]; 52.3 µM in assay [5]; 70 µM in assay [6]. For the same molecule, the TGI worked out at 1.36 µM in assay [7], 13.6 µM in [8], 0.985 µM in [9] and 81.1 µM in [10].

Turning to `CCN1C(=O)N(CC)C2C1NN=c1s/c(=C3\C(=O)Nc4ccccc43)c(=O)n12` (stereo not given), the GI50 in [1] was 0.193 µM; in assay [2] it was 0.445 µM; in [3], 0.492 µM; in assay [4], 2.12 µM; in assay [5], 0.296 µM; in assay [6] it was 2.41 µM. For the same molecule, the GI50 is 0.544 µM in [7], 0.639 µM in assay [8], 0.6 µM in [9] and 1.09 µM in assay [10]. The TGI in assay [1] was 0.728 µM; in assay [2], greater than 57.5 µM; in assay [3], 33.6 µM; in assay [4], greater than 100 µM; in assay [5], 0.91 µM; in assay [6] it was 49.9 µM. The TGI in assay [7] is 55.5 µM; in [8], greater than 53.7 µM; in assay [9], greater than 100 µM; in assay [10], greater than 100 µM.

Consider `CCc1nc(N)nc(N)c1C#CC(C)c1ccc(-c2ccncc2)cc1Cl` (stereo not given), for which the GI50 in [1] is 0.109 µM and 0.223 µM; in [2], 0.0387 µM and 0.0515 µM; in assay [3] it was 0.0242 µM and 0.0658 µM; in assay [4], 0.0259 µM and 0.0772 µM; in [5], 0.0226 µM and 0.0298 µM; in assay [6], 0.555 µM and 0.511 µM. The GI50 in assay [7] was 0.264 µM and 0.86 µM; in [8] it was < 0.005 µM and 0.0299 µM; in assay [9] it was 0.0189 µM and 0.148 µM; in [10], 0.0227 µM and 0.073 µM. Besides, the TGI in assay [1] is 1.64 µM and 5.81 µM; in [2], 2.58 µM and 11.7 µM; in assay [3], 5.01 µM and 13.7 µM; in assay [4], 2.5 µM and 12.6 µM; in assay [5], 1.75 µM and 2.61 µM; in [6], 7.11 µM and 19.8 µM. For the same molecule, the TGI in assay [7] was 6.56 µM and 28.3 µM; in [8], 7.66 µM and 37.7 µM; in assay [9], 5.67 µM and 17.2 µM; in assay [10], 1.47 µM and 13.5 µM.

In the case of `O=C(O)CCC(O)=C1S(=O)(=O)OCCOS1(=O)=O`, the TGI in [1], in assay [2], in [3], in assay [4], in assay [5] and in assay [6] was greater than 100 µM in each case. Further, the TGI in assay [7], in assay [8], in assay [9] and in [10] was greater than 100 µM in each case.
